Results taken from patent US20240208912A1 (Mirati Therapeutics, Inc., priority 2021, published 2024).
Counter-ions that a name gives are not always drawn.

Key:
[1] = test system: HCT116 homozygous MTAP knockout cells; assay: Proliferation assay (CellTiter-Glo, 10 days) in HCT116 homozygous MTAP knockout cells; format: cell-based; details: Homo sapiens, HCT-116, 240 h, CellTiter-Glo after 10 days of treatment, read-out: Proliferation IC50 (nM) HCT116 MTAP_KO
Method in brief: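 MTAP-null HCT116 clone made by CRISPR/Cas9 knockout of both alleles, tested beside parental cells. Cells dosed the day after seeding, split 1:10 on day 6 into fresh medium with the same compound level, and read on day 11 by CellTiter-Glo. IC50 taken after 10 days of exposure.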

PRMT5/MEP50 complex = target: T1, PRMT5/MEP50 complex (Homo sapiens, UniProt O14744); assay: PRMT5:MEP50 HotSpot Assay (full-length histone H2A substrate, plus and minus MTA); format: biochemical; details: IC50 + 2 μM MTA, in the presence of 2 μM MTA
T1 construct: purchased Reaction Biology Corporation
T1 sequence (O14744 2-637 limits assumed): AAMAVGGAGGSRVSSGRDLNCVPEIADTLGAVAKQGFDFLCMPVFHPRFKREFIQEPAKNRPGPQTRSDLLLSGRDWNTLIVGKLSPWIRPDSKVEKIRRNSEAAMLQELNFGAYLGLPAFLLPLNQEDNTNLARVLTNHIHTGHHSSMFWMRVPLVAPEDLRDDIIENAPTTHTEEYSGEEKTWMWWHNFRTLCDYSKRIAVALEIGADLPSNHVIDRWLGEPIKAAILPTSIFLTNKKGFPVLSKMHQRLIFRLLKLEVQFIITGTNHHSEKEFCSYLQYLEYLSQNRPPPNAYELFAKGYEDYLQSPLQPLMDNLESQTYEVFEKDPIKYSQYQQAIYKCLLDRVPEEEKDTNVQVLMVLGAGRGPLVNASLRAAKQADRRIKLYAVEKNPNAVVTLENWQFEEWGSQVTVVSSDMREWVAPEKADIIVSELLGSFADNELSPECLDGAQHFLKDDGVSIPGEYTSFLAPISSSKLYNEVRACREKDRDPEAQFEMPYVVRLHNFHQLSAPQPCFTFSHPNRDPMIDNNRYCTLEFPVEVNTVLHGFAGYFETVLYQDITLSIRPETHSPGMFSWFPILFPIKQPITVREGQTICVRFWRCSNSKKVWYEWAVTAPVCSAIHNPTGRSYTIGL
T1 sequence (Q9BQA1 2-342 partner limits assumed): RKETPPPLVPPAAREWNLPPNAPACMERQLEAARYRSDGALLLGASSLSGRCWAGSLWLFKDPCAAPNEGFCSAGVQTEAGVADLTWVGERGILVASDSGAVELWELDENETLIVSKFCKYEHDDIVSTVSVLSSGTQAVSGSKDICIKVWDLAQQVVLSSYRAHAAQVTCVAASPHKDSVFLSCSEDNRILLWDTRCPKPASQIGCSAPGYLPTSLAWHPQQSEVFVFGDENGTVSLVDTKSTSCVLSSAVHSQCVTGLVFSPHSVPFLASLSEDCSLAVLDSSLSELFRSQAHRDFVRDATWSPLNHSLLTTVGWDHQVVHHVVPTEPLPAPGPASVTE
Method in brief: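 Radiometric HotSpot format using recombinant full-length histone H2A as substrate, run with and without MTA. Reactions were stopped and spotted onto filter paper. Tritiated H2A was quantified by scintillation counting.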

Row | SMILES | IC50 [1] [nM] | IC50 (PRMT5/MEP50 complex) [nM]
1 | Cn1ncc(-c2ccc3c(=O)[nH]nc(CN)c3c2)c1-c1sc2ncc(Cl)cc2c1C#N [Example 4-263, 2-[4-[4-(aminomethyl)-1-oxo-2H-phthalazin-6-yl]-2-methyl-pyrazol-3-yl]-5-chloro-thieno[2,3-b]pyridine-3-carbonitrile] | 132 | 119
2 | COc1cccc2c(C#N)c(-c3c(-c4ccc5c(=O)[nH]nc(CN)c5c4)cnn3C)sc12 [Example 4-268, 2-[4-[4-(aminomethyl)-1-oxo-2H-phthalazin-6-yl]-2-methyl-pyrazol-3-yl]-7-methoxy-benzothiophene-3-carbonitrile] | 201 | 165
3 | Cn1ncc(-c2ccc3c(=O)[nH]nc(CN)c3c2)c1-c1sc2c(OCC(F)F)cccc2c1C#N [Example 4-269, 2-(4-(4-(aminomethyl)-1-oxo-1,2-dihydrophthalazin-6-yl)-1-methyl-1H-pyrazol-5-yl)-7-(2,2-difluoroethoxy)benzo[b]thiophene-3-carbonitrile] | 182 | 58.2
4 | Cn1ncc(-c2ccc3c(=O)[nH]nc(CN)c3c2)c1-c1sc2cc(Cl)ccc2c1C#N [Example 4-270, 2-(4-(4-(aminomethyl)-1-oxo-1,2-dihydrophthalazin-6-yl)-1-methyl-1H-pyrazol-5-yl)-6-chlorobenzo-[b]thiophene-3-carbonitrile] | 400 | 102
5 | Cn1ncc(-c2ccc3c(=O)[nH]nc(CN)c3c2)c1-c1sc2cnccc2c1C#N [Example 4-273, 2-[4-[4-(aminomethyl)-1-oxo-2H-phthalazin-6-yl]-2-methyl-pyrazol-3-yl]thieno[2,3-c]pyridine-3-carbonitrile] | 1440 | 376
6 | Cn1ncc(-c2ccc3c(=O)[nH]nc(CN)c3c2)c1-c1sc2ccncc2c1C#N [Example 4-274, 2-[4-[4-(aminomethyl)-1-oxo-2H-phthalazin-6-yl]-2-methyl-pyrazol-3-yl]thieno[3,2-c]pyridine-3-carbonitrile] | 3380 | 1070
7 | Cc1sc(-c2c(-c3ccc4c(=O)[nH]nc(CN)c4c3)cnn2C)c(C#N)c1OC1CC1 [Example 4-276, 2-(4-(4-(aminomethyl)-1-oxo-1,2-dihydrophthalazin-6-yl)-1-methyl-1H-pyrazol-5-yl)-4-cyclopropoxy-5-methylthiophene-3-carbonitrile] | 198 | 222
8 | Cn1ncc(-c2ccc3c(=O)[nH]nc(C4(N)CC4)c3c2)c1-c1sc2ccccc2c1C#N [Example 9-8, 2-(4-(4-(1-aminocyclopropyl)-1-oxo-1,2-dihydrophthalazin-6-yl)-1-methyl-1H-pyrazol-5-yl)benzo[b]thiophene-3-carbonitrile] | 10000 | > 10000
9 | Cn1ncc(-c2ccc3c(=O)[nH]nc(C4(N)CCC4)c3c2)c1-c1sc2ccccc2c1C#N [Example 9-10, 2-(4-(4-(1-aminocyclobutyl)-1-oxo-1,2-dihydrophthalazin-6-yl)-1-methyl-1H-pyrazol-5-yl) benzo[b]thiophene-3-carbonitrile] | 10000 | > 10000
10 | Cn1ncc(-c2ccc3c(=O)[nH]nc(C4CCN4)c3c2)c1-c1sc2ccccc2c1C#N (stereo not drawn) [Example 9-11, 2-(4-(4-(azetidin-2-yl)-1-oxo-1,2-dihydrophthalazin-6-yl)-1-methyl-1H-pyrazol-5-yl)benzo[b]thiophene-3-carbonitrile] | 2370 | 1440
11 | Cn1ncc(-c2ccc3c(=O)[nH]nc(C4CNC4)c3c2)c1-c1sc2ccccc2c1C#N [Example 9-12, 2-[4-[4-(azetidin-3-yl)-1-oxo-2H-phthalazin-6-yl]-2-methyl-pyrazol-3-yl]benzothiophene-3-carbonitrile] | 10000 | 4250
12 | CCOc1cc(-c2cnn(C)c2-c2sc3ccccc3c2C#N)cc2c(CN)n[nH]c(=O)c12 [Example 10-24, 2-(4-(4-(aminomethyl)-8-ethoxy-1-oxo-1,2-dihydrophthalazin-6-yl)-1-methyl-1H-pyrazol-5-yl)benzo[b]thiophene-3-carbonitrile] | 166 | 76
13 | Cc1cnc2sc(-c3c(-c4ccc5c(=O)[nH]nc(CN)c5c4)cnn3C)c(C#N)c2c1 [Example 12-19, 2-[4-[4-(aminomethyl)-1-oxo-2H-phthalazin-6-yl]-2-methyl-pyrazol-3-yl]-5-methyl-thieno[2,3-b]pyridine-3-carbonitrile hydrochloride] | 136 | 212
14 | COCc1cccc2c(C#N)c(-c3c(-c4ccc5c(=O)[nH]nc(CN)c5c4)cnn3C)sc12 [Example 12-20, 2-[4-[4-(aminomethyl)-1-oxo-2H-phthalazin-6-yl]-2-methyl-pyrazol-3-yl]-7-(methoxymethyl) benzothiophene-3-carbonitrile hydrochloride] | 269 | 183
15 | Cn1ncc(-c2ccc3c(=O)[nH]nc(CN)c3c2)c1-c1sc2c(C3CCCO3)cccc2c1C#N (stereo not drawn) [Example 12-21, 2-[4-[4-(aminomethyl)-1-oxo-2H-phthalazin-6-yl]-2-methyl-pyrazol-3-yl]-7-THF-2-yl-benzothiophene-3-carbonitrile hydrochloride] | 126 | 128
16 | Cn1ncc(-c2cc(O)c3c(=O)[nH]nc(CN)c3c2)c1-c1sc2ccccc2c1C#N [Example 15-6, 2-(4-(4-(aminomethyl)-8-hydroxy-1-oxo-1,2-dihydrophthalazin-6-yl)-1-methyl-1H-pyrazol-5-yl)benzo[b]thiophene-3-carbonitrile] | 138 | 235
17 | Cn1ncc(-c2ccc3c(=O)[nH]c4c(c3c2)CCNC4)c1-c1sc2ccccc2c1C#N [Example 18-1, 2-(1-methyl-4-(6-oxo-1,2,3,4,5,6-hexahydrobenzo[c][1,7]naphthyridin-9-yl)-1H-pyrazol-5-yl)benzo[b]thiophene-3-carbonitrile] | 4140 | > 10000
18 | CCn1ncc(-c2ccc3c(=O)[nH]nc(CN)c3c2)c1-c1sc2ccccc2c1C#N [Example 19-1, 2-[4-[4-(aminomethyl)-1-oxo-2H-phthalazin-6-yl]-2-ethyl-pyrazol-3-yl]benzothiophene-3-carbonitrile] | 587 | 146
19 | CC(C)n1ncc(-c2ccc3c(=O)[nH]nc(CN)c3c2)c1-c1sc2ccccc2c1C#N [Example 19-2, 2-(4-(4-(aminomethyl)-1-oxo-1,2-dihydrophthalazin-6-yl)-1-isopropyl-1H-pyrazol-5-yl)benzo[b]thiophene-3-carbonitrile] | 4220 | 1650
20 | N#Cc1c(-c2c(-c3ccc4c(=O)[nH]nc(CN)c4c3)cnn2C(F)F)sc2ccccc12 [Example 19-3, 2-(4-(4-(aminomethyl)-1-oxo-1,2-dihydrophthalazin-6-yl)-1-(difluoromethyl)-1H-pyrazol-5-yl)benzo[b]thiophene-3-carbonitrile] | 149 | 308
21 | N#Cc1c(-c2c(-c3ccc4c(=O)[nH]nc(CN)c4c3)cnn2C(F)(F)F)sc2ccccc12 [Example 19-4, 2-(4-(4-(aminomethyl)-1-oxo-1,2-dihydrophthalazin-6-yl)-1-(trifluoromethyl)-1H-pyrazol-5-yl)benzo[b]thiophene-3-carbonitrile] | 1030 | 647
